Measured values: patent US12364709B2, “Bioavailable poly amines” (AMINEX THERAPEUTICS, INC., priority 2016, dated 2025)
Where two headings read alike, the source gives them in different places.

Test: 28-day repeat-dose toxicity study, toxicokinetics of AMXT 1501 dicaprate
Assay type: in vivo, beagle dogs
Conditions: both sexes, beagle, dog, plasma, po
Procedure: AMXT 1501 PK parameters were calculated for all AMXT 1501 dicaprate-dosed animals for the first dose (Day 1) and last dose (Day 28).

CCCCCCCCCCCCCCCC(=O)NCCCC[C@@H](N)C(=O)NCCCNCCCCNCCCN [AMXT 1501 dicaprate]
AUC(0-t) (8 mg/kg/day, 8 mg/kg/day PO, DFMO 0, Day 1, M+F combined, read-out: AUC0-24 hr Median): 1500 ng·h/mL | Cmax (8 mg/kg/day, 8 mg/kg/day PO, DFMO 0, Day 1, M+F combined, read-out: Cmax Mean): 95.6 ng/mL | Cmax (8 mg/kg/day, 8 mg/kg/day PO, DFMO 0, Day 1, M+F combined, read-out: Cmax Median): 115 ng/mL | Tmax (8 mg/kg/day, 8 mg/kg/day PO, DFMO 0, Day 1, M+F combined, read-out: Tmax Mean): 5.33 h | Tmax (8 mg/kg/day, 8 mg/kg/day PO, DFMO 0, Day 1, M+F combined, read-out: Tmax Median): 6 h | AUC(0-t) (8 mg/kg/day, 8 mg/kg/day PO, DFMO 0, Day 28, M+F combined, read-out: AUC0-24 hr Mean): 2210 ng·h/mL | AUC(0-t) (8 mg/kg/day, 8 mg/kg/day PO, DFMO 0, Day 28, M+F combined, read-out: AUC0-24 hr Median): 1690 ng·h/mL | AUC(0-t) (8 mg/kg/day, 8 mg/kg/day PO, DFMO 0, Day 28, M+F combined, read-out: AUC0-t Mean): 3390 ng·h/mL | AUC(0-t) (8 mg/kg/day, 8 mg/kg/day PO, DFMO 0, Day 28, M+F combined, read-out: AUC0-t Median): 1900 ng·h/mL | AUC(0-inf) (8 mg/kg/day, 8 mg/kg/day PO, DFMO 0, Day 28, M+F combined, read-out: AUC0-∞ Mean): 3440 ng·h/mL | AUC(0-inf) (8 mg/kg/day, 8 mg/kg/day PO, DFMO 0, Day 28, M+F combined, read-out: AUC0-∞ Median): 1930 ng·h/mL | Cmax (8 mg/kg/day, 8 mg/kg/day PO, DFMO 0, Day 28, M+F combined, read-out: Cmax Mean): 153 ng/mL | Cmax (8 mg/kg/day, 8 mg/kg/day PO, DFMO 0, Day 28, M+F combined, read-out: Cmax Median): 127 ng/mL | Tmax (8 mg/kg/day, 8 mg/kg/day PO, DFMO 0, Day 28, M+F combined, read-out: Tmax Mean): 4.6 h | Tmax (8 mg/kg/day, 8 mg/kg/day PO, DFMO 0, Day 28, M+F combined, read-out: Tmax Median): 6 h | half-life (8 mg/kg/day, 8 mg/kg/day PO, DFMO 0, Day 28, M+F combined, read-out: t1/2 Mean (converted)): 19.7 h | half-life (8 mg/kg/day, 8 mg/kg/day PO, DFMO 0, Day 28, M+F combined, read-out: t1/2 Median (converted)): 18.7 h | AUC(0-t) (8 mg/kg/day, 8 mg/kg/day PO, DFMO 50 mg/kg/day, Day 28, M+F combined, read-out: AUC0-24 hr Mean): 2120 ng·h/mL | AUC(0-t) (8 mg/kg/day, 8 mg/kg/day PO, DFMO 50 mg/kg/day, Day 28, M+F combined, read-out: AUC0-24 hr Median): 2250 ng·h/mL | AUC(0-t) (8 mg/kg/day, 8 mg/kg/day PO, DFMO 50 mg/kg/day, Day 28, M+F combined, read-out: AUC0-t Mean): 3010 ng·h/mL | AUC(0-t) (8 mg/kg/day, 8 mg/kg/day PO, DFMO 50 mg/kg/day, Day 28, M+F combined, read-out: AUC0-t Median): 2970 ng·h/mL | AUC(0-inf) (8 mg/kg/day, 8 mg/kg/day PO, DFMO 50 mg/kg/day, Day 28, M+F combined, read-out: AUC0-∞ Mean): 3070 ng·h/mL | AUC(0-inf) (8 mg/kg/day, 8 mg/kg/day PO, DFMO 50 mg/kg/day, Day 28, M+F combined, read-out: AUC0-∞ Median): 3020 ng·h/mL | Cmax (8 mg/kg/day, 8 mg/kg/day PO, DFMO 50 mg/kg/day, Day 28, M+F combined, read-out: Cmax Mean): 152 ng/mL | Cmax (8 mg/kg/day, 8 mg/kg/day PO, DFMO 50 mg/kg/day, Day 28, M+F combined, read-out: Cmax Median): 171 ng/mL | Tmax (8 mg/kg/day, 8 mg/kg/day PO, DFMO 50 mg/kg/day, Day 28, M+F combined, read-out: Tmax Mean): 6.67 h | Tmax (8 mg/kg/day, 8 mg/kg/day PO, DFMO 50 mg/kg/day, Day 28, M+F combined, read-out: Tmax Median): 6 h | half-life (8 mg/kg/day, 8 mg/kg/day PO, DFMO 50 mg/kg/day, Day 28, M+F combined, read-out: t1/2 Mean (converted)): 18 h | half-life (8 mg/kg/day, 8 mg/kg/day PO, DFMO 50 mg/kg/day, Day 28, M+F combined, read-out: t1/2 Median (converted)): 20.3 h | AUC(0-t) (8 mg/kg/day, 8 mg/kg/day PO, DFMO 200 mg/kg/day, Day 1, M+F combined, read-out: AUC0-24 hr Mean): 1470 ng·h/mL | AUC(0-t) (8 mg/kg/day, 8 mg/kg/day PO, DFMO 200 mg/kg/day, Day 1, M+F combined, read-out: AUC0-24 hr Median): 1390 ng·h/mL | Cmax (8 mg/kg/day, 8 mg/kg/day PO, DFMO 200 mg/kg/day, Day 1, M+F combined, read-out: Cmax Mean): 101 ng/mL | Cmax (8 mg/kg/day, 8 mg/kg/day PO, DFMO 200 mg/kg/day, Day 1, M+F combined, read-out: Cmax Median): 86.5 ng/mL | Tmax (8 mg/kg/day, 8 mg/kg/day PO, DFMO 200 mg/kg/day, Day 1, M+F combined, read-out: Tmax Mean): 9 h | Tmax (8 mg/kg/day, 8 mg/kg/day PO, DFMO 200 mg/kg/day, Day 1, M+F combined, read-out: Tmax Median): 9 h | AUC(0-t) (16 mg/kg/day, 16 mg/kg/day PO, DFMO 0, Day 1, M+F combined, read-out: AUC0-24 hr Mean): 2500 ng·h/mL | AUC(0-t) (16 mg/kg/day, 16 mg/kg/day PO, DFMO 0, Day 1, M+F combined, read-out: AUC0-24 hr Median): 1750 ng·h/mL | Cmax (16 mg/kg/day, 16 mg/kg/day PO, DFMO 0, Day 1, M+F combined, read-out: Cmax Mean): 155 ng/mL | Cmax (16 mg/kg/day, 16 mg/kg/day PO, DFMO 0, Day 1, M+F combined, read-out: Cmax Median): 113 ng/mL | Tmax (16 mg/kg/day, 16 mg/kg/day PO, DFMO 0, Day 1, M+F combined, read-out: Tmax Mean): 6 h | Tmax (16 mg/kg/day, 16 mg/kg/day PO, DFMO 0, Day 1, M+F combined, read-out: Tmax Median): 6 h | AUC(0-t) (16 mg/kg/day, 16 mg/kg/day PO, DFMO 0, Day 28, M+F combined, read-out: AUC0-24 hr Mean): 4590 ng·h/mL | AUC(0-t) (16 mg/kg/day, 16 mg/kg/day PO, DFMO 0, Day 28, M+F combined, read-out: AUC0-24 hr Median): 4890 ng·h/mL | AUC(0-t) (16 mg/kg/day, 16 mg/kg/day PO, DFMO 0, Day 28, M+F combined, read-out: AUC0-t Mean): 7970 ng·h/mL
